Values after ≈ are worked out from the molar mass of the structure shown.
Key:
Staphylococcus aureus = experiment: In vitro antimicrobial activity against Staphylococcus aureus X1; format: functional
Streptococcus pneumoniae = experiment: In vitro antimicrobial activity against Streptococcus pneumoniae; format: functional
[1] = system: Staphylococcus epidermidis; experiment: In vitro antimicrobial activity against Staphylococcus epidermidis EPI1; format: functional
Enterococcus faecium = experiment: In vitro antimicrobial activity against Streptococcus faecium X66; format: functional, streptococcus fae-cium
Streptococcus pyogenes [2] = experiment: In vitro antimicrobial activity against Streptococcus pyogenes C203; format: functional
Streptococcus pyogenes [3] = experiment: In vivo effective dose against experimental infections in rodent caused by Streptococcus pyogenes C203 when administered orally; format: functional; conditions: po
Haemophilus influenzae = experiment: In vitro antimicrobial activity against Haemophilus influenzae.; format: functional
Streptococcus pyogenes [4] = experiment: In vivo effective dose against experimental infections in rodent caused by Streptococcus pyogenes C203 when administered sc; format: functional

Row | Structure (SMILES) | MIC (Staphylococcus aureus) [µg/mL] | MIC (Streptococcus pneumoniae) [µg/mL] | MIC [1] [µg/mL] | MIC (Enterococcus faecium) [µg/mL] | MIC (Streptococcus pyogenes [2]) [µg/mL] | ED50 (Streptococcus pyogenes [3]) [mg/kg] | MIC (Haemophilus influenzae) [µg/mL] | ED50 (Streptococcus pyogenes [4]) [mg/kg]
1 | CC[C@H]1OC(=O)C[C@@H](O)[C@H](C)[C@@H](O[C@@H]2O[C@H](C)[C@@H](O)[C@H](N(C)C)[C@H]2O)[C@@H](CCSc2nnnn2C)C[C@@H](C)C(=O)/C=C/C(C)=C/[C@@H]1CO[C@@H]1O[C@H](C)[C@@H](O)[C@@H](OC)[C@H]1OC | 0.5 (≈ 0.573 µM) | 2 (≈ 2.29 µM) | 0.25 (≈ 0.287 µM) | 16 (≈ 18.3 µM) | 0.25 (≈ 0.287 µM) | 50 | – | –
2 | CC[C@H]1OC(=O)C[C@@H](O)[C@H](C)[C@@H](O[C@@H]2O[C@H](C)[C@@H](O[C@H]3C[C@@](C)(O)[C@@H](O)[C@H](C)O3)[C@H](N(C)C)[C@H]2O)[C@@H](CCSc2nnnn2C)C[C@@H](C)C(=O)/C=C/C(C)=C/[C@@H]1CO[C@@H]1O[C@H](C)[C@@H](O)[C@@H](OC)[C@H]1OC | 0.5 (≈ 0.492 µM) | 32 (≈ 31.5 µM) | 1 (≈ 0.984 µM) | 128 (≈ 126 µM) | 1 (≈ 0.984 µM) | – | > 128 | > 6.3
3 | CC[C@H]1OC(=O)C[C@@H](O)[C@H](C)[C@@H](O[C@@H]2O[C@H](C)[C@@H](O)[C@H](N(C)C)[C@H]2O)[C@@H](CCOC)C[C@@H](C)C(=O)/C=C/C(C)=C/[C@@H]1CO[C@@H]1O[C@H](C)[C@@H](O)[C@@H](OC)[C@H]1OC | 0.5 (≈ 0.635 µM) | 4 (≈ 5.08 µM) | 0.5 (≈ 0.635 µM) | 16 (≈ 20.3 µM) | 0.5 (≈ 0.635 µM) | – | – | > 6.3
4 | CC[C@H]1OC(=O)C[C@@H](O)[C@H](C)[C@@H](O[C@@H]2O[C@H](C)[C@@H](O[C@H]3C[C@@](C)(O)[C@@H](O)[C@H](C)O3)[C@H](N(C)C)[C@H]2O)[C@@H](CCF)C[C@@H](C)C(=O)/C=C/C(C)=C/[C@@H]1CO[C@@H]1O[C@H](C)[C@@H](O)[C@@H](OC)[C@H]1OC | 1 (≈ 1.09 µM) | 64 (≈ 69.6 µM) | 1 (≈ 1.09 µM) | > 128 | 4 (≈ 4.35 µM) | – | > 128 | –
5 | CC[C@H]1OC(=O)C[C@@H](O)[C@H](C)[C@@H](O[C@@H]2O[C@H](C)[C@@H](O[C@H]3C[C@@](C)(O)[C@@H](O)[C@H](C)O3)[C@H](N(C)C)[C@H]2O)[C@@H](C)C[C@@H](C)C(=O)/C=C/C(C)=C/[C@@H]1CO | 64 (≈ 89.6 µM) | 64 (≈ 89.6 µM) | 16 (≈ 22.4 µM) | 128 (≈ 179 µM) | 64 (≈ 89.6 µM) | – | > 128 | –
6 | CC[C@H]1OC(=O)C[C@@H](O)[C@H](C)[C@@H](O[C@@H]2O[C@H](C)[C@@H](O[C@H]3C[C@@](C)(O)[C@@H](O)[C@H](C)O3)[C@H](N(C)C)[C@H]2O)[C@@H](CCSc2ccccc2)C[C@@H](C)C(=O)/C=C/C(C)=C/[C@@H]1CO[C@@H]1O[C@H](C)[C@@H](O)[C@@H](OC)[C@H]1OC | 1 (≈ 0.99 µM) | 64 (≈ 63.3 µM) | 2 (≈ 1.98 µM) | > 128 | 4 (≈ 3.96 µM) | – | > 128 | –
7 | CC[C@H]1OC(=O)C[C@@H](O)[C@H](C)[C@@H](O[C@@H]2O[C@H](C)[C@@H](O)[C@H](N(C)C)[C@H]2O)[C@@H](CCN2C(=O)c3ccccc3C2=O)C[C@@H](C)C(=O)/C=C/C(C)=C/[C@@H]1CO | 4 (≈ 5.49 µM) | 64 (≈ 87.8 µM) | 4 (≈ 5.49 µM) | 16 (≈ 22 µM) | 64 (≈ 87.8 µM) | – | 64 (≈ 87.8 µM) | –
8 | CC[C@H]1OC(=O)C[C@@H](O)[C@H](C)[C@@H](O[C@@H]2O[C@H](C)[C@@H](O[C@H]3C[C@@](C)(O)[C@@H](O)[C@H](C)O3)[C@H](N(C)C)[C@H]2O)[C@@H](CCO)C[C@@H](C)C(=O)/C=C/C(C)=C/[C@@H]1CO | > 128 | 64 (≈ 86 µM) | 128 (≈ 172 µM) | > 128 | 64 (≈ 86 µM) | – | > 128 | –
9 | CC[C@H]1OC(=O)C[C@@H](O)[C@H](C)[C@@H](O[C@@H]2O[C@H](C)[C@@H](O[C@H]3C[C@@](C)(O)[C@@H](O)[C@H](C)O3)[C@H](N(C)C)[C@H]2O)[C@@H](CCNc2ccc(OC(C)=O)cc2)C[C@@H](C)C(=O)/C=C/C(C)=C/[C@@H]1CO[C@@H]1O[C@H](C)[C@@H](O)[C@@H](OC)[C@H]1OC | 1 (≈ 0.951 µM) | 1 (≈ 0.951 µM) | 0.5 (≈ 0.476 µM) | 64 (≈ 60.9 µM) | 2 (≈ 1.9 µM) | – | 128 (≈ 122 µM) | –
10 | CC[C@H]1OC(=O)C[C@@H](O)[C@H](C)[C@@H](O[C@@H]2O[C@H](C)[C@@H](O[C@H]3C[C@@](C)(O)[C@@H](O)[C@H](C)O3)[C@H](N(C)C)[C@H]2O)[C@@H](CCN2CCCCCCC2)C[C@@H](C)C(=O)/C=C/C(C)=C/[C@@H]1CO[C@@H]1O[C@H](C)[C@@H](O)[C@@H](O)[C@H]1OC | 4 (≈ 4 µM) | 16 (≈ 16 µM) | 8 (≈ 8.01 µM) | 64 (≈ 64 µM) | 2 (≈ 2 µM) | – | > 128 | –
11 | CC[C@H]1OC(=O)C[C@@H](O)[C@H](C)[C@@H](O[C@@H]2O[C@H](C)[C@@H](O)[C@H](N(C)C)[C@H]2O)[C@@H](CCOC(C(F)(F)F)C(F)(F)F)C[C@@H](C)C(=O)/C=C/C(C)=C/[C@@H]1CO[C@@H]1O[C@H](C)[C@@H](O)[C@@H](OC)[C@H]1OC | 0.5 (≈ 0.541 µM) | 4 (≈ 4.33 µM) | 0.5 (≈ 0.541 µM) | 32 (≈ 34.6 µM) | 0.5 (≈ 0.541 µM) | – | 64 (≈ 69.3 µM) | > 10
12 | CC[C@H]1OC(=O)C[C@@H](O)[C@H](C)[C@@H](O[C@@H]2O[C@H](C)[C@@H](O)[C@H](N(C)C)[C@H]2O)[C@@H](CCO)C[C@@H](C)C(=O)/C=C/C(C)=C/[C@@H]1C | 4 (≈ 6.85 µM) | 16 (≈ 27.4 µM) | 16 (≈ 27.4 µM) | 32 (≈ 54.8 µM) | 16 (≈ 27.4 µM) | – | 32 (≈ 54.8 µM) | –
13 | CC[C@H]1OC(=O)C[C@@H](O)[C@H](C)[C@H]2OCC[C@H]2C[C@@H](C)C(=O)/C=C/C(C)=C/[C@@H]1CO[C@@H]1O[C@H](C)[C@@H](O)[C@@H](OC)[C@H]1OC | > 128 | > 128 | > 128 | > 128 | > 128 | – | > 128 | –
14 | CC[C@H]1OC(=O)C[C@@H](O)[C@H](C)[C@@H](O[C@@H]2O[C@H](C)[C@@H](O[C@H]3C[C@@](C)(O)[C@@H](O)[C@H](C)O3)[C@H](N(C)C)[C@H]2O)[C@@H](CCOc2ccc(OC(C)=O)cc2)C[C@@H](C)C(=O)/C=C/C(C)=C/[C@@H]1CO[C@@H]1O[C@H](C)[C@@H](O)[C@@H](OC)[C@H]1OC | 0.5 (≈ 0.475 µM) | 0.5 (≈ 0.475 µM) | 0.5 (≈ 0.475 µM) | 8 (≈ 7.6 µM) | 0.5 (≈ 0.475 µM) | – | > 128 | –
15 | CC[C@H]1C[C@@H](C)C(=O)/C=C/C(C)=C/[C@H](CO)[C@@H](CC)OC(=O)C[C@@H](O)[C@H](C)[C@H]1O[C@@H]1O[C@H](C)[C@@H](O[C@H]2C[C@@](C)(O)[C@@H](O)[C@H](C)O2)[C@H](N(C)C)[C@H]1O | 128 (≈ 176 µM) | > 128 | 128 (≈ 176 µM) | > 128 | > 128 | – | > 128 | –
16 | CC[C@H]1OC(=O)C[C@@H](O)[C@H](C)[C@@H](O[C@@H]2O[C@H](C)[C@@H](O[C@H]3C[C@@](C)(O)[C@@H](O)[C@H](C)O3)[C@H](N(C)C)[C@H]2O)[C@@H](CC=O)C[C@@H](C)C(=O)/C=C/C(C)=C/[C@@H]1C | 0.5 (≈ 0.689 µM) | 0.12 (≈ 0.165 µM) | 0.5 (≈ 0.689 µM) | 0.5 (≈ 0.689 µM) | 0.25 (≈ 0.344 µM) | – | 8 (≈ 11 µM) | –
17 | CC[C@H]1OC(=O)C[C@@H](O)[C@H](C)[C@@H](O[C@@H]2O[C@H](C)[C@@H](O[C@H]3C[C@@](C)(O)[C@@H](O)[C@H](C)O3)[C@H](N(C)C)[C@H]2O)[C@@H](CCO)C[C@@H](C)C(=O)/C=C/C(C)=C/[C@@H]1C | 64 (≈ 87.9 µM) | 64 (≈ 87.9 µM) | 32 (≈ 44 µM) | 64 (≈ 87.9 µM) | 64 (≈ 87.9 µM) | – | > 128 | –
18 | CC[C@H]1OC(=O)C[C@@H](O)[C@H](C)[C@@H](O[C@@H]2O[C@H](C)[C@@H](O[C@H]3C[C@@](C)(O)[C@@H](O)[C@H](C)O3)[C@H](N(C)C)[C@H]2O)[C@@H](CCOc2ccc(C=O)cc2)C[C@@H](C)C(=O)/C=C/C(C)=C/[C@@H]1CO[C@@H]1O[C@H](C)[C@@H](O)[C@@H](OC)[C@H]1OC | 1 (≈ 0.978 µM) | 16 (≈ 15.7 µM) | 1 (≈ 0.978 µM) | 128 (≈ 125 µM) | 1 (≈ 0.978 µM) | – | > 128 | –
19 | CC[C@H]1OC(=O)C[C@@H](O)[C@H](C)[C@@H](O[C@@H]2O[C@H](C)[C@@H](O[C@H]3C[C@@](C)(O)[C@@H](O)[C@H](C)O3)[C@H](N(C)C)[C@H]2O)[C@@H](CCN2C(=O)c3ccccc3C2=O)C[C@@H](C)C(=O)/C=C/C(C)=C/[C@@H]1CO | 64 (≈ 73.3 µM) | 16 (≈ 18.3 µM) | 32 (≈ 36.7 µM) | > 128 | 128 (≈ 147 µM) | – | > 128 | –
20 | CC[C@H]1OC(=O)C[C@@H](O)[C@H](C)[C@@H](O[C@@H]2O[C@H](C)[C@@H](O)[C@H](N(C)C)[C@H]2O)[C@@H](CC=O)C[C@@H](C)C(=O)/C=C/C(C)=C/[C@@H]1C | 0.25 (≈ 0.43 µM) | 0.12 (≈ 0.206 µM) | 0.25 (≈ 0.43 µM) | 0.5 (≈ 0.859 µM) | 0.25 (≈ 0.43 µM) | – | 1 (≈ 1.72 µM) | –
21 | CCOC(=O)c1ccc(OCC[C@H]2C[C@@H](C)C(=O)/C=C/C(C)=C/[C@H](CO[C@@H]3O[C@H](C)[C@@H](O)[C@@H](OC)[C@H]3OC)[C@@H](CC)OC(=O)C[C@@H](O)[C@H](C)[C@H]2O[C@@H]2O[C@H](C)[C@@H](O)[C@H](N(C)C)[C@H]2O)cc1 | 0.5 (≈ 0.542 µM) | 1 (≈ 1.08 µM) | 0.5 (≈ 0.542 µM) | 8 (≈ 8.68 µM) | 0.5 (≈ 0.542 µM) | – | – | > 10
22 | CC[C@H]1OC(=O)C[C@@H](O)[C@H](C)[C@@H](O[C@@H]2O[C@H](C)[C@@H](O[C@H]3C[C@@](C)(O)[C@@H](O)[C@H](C)O3)[C@H](N(C)C)[C@H]2O)[C@@H](CCOc2ccc(-c3ccccc3)cc2)C[C@@H](C)C(=O)/C=C/C(C)=C/[C@@H]1CO[C@@H]1O[C@H](C)[C@@H](O)[C@@H](OC)[C@H]1OC | 2 (≈ 1.87 µM) | 1 (≈ 0.934 µM) | 2 (≈ 1.87 µM) | 8 (≈ 7.47 µM) | 2 (≈ 1.87 µM) | – | > 128 | –
23 | CC[C@H]1OC(=O)C[C@@H](O)[C@H](C)[C@@H](O[C@@H]2O[C@H](C)[C@@H](O[C@H]3C[C@@](C)(O)[C@@H](O)[C@H](C)O3)[C@H](N(C)C)[C@H]2O)[C@@H](CCN=[N+]=[N-])C[C@@H](C)C(=O)/C=C/C(C)=C/[C@@H]1CO[C@@H]1O[C@H](C)[C@@H](O)[C@@H](OC)[C@H]1OC | 2 (≈ 2.12 µM) | 32 (≈ 33.9 µM) | 1 (≈ 1.06 µM) | 128 (≈ 136 µM) | 2 (≈ 2.12 µM) | – | > 128 | 6.3
